Drawing on patent US12091425B2 (AMGEN INC., priority 2016, dated 2024), this text covers IC50 for 17 compounds.

Assay [1] addresses T1, Mcl-1/Bim interaction, recombinant human Mcl-1 (171-327) (Homo sapiens, UniProt Q07820).
T1 construct: made in house
Briefly: Cell free Mcl-1: Bim Affinity Assay (Mcl-1 HTRF). The format is binding. In outline: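 Displacement of biotinylated Bim 51-76 peptide is followed by TR-FRET. Incubation runs overnight. Duplicate points are fitted with a four-parameter sigmoid to yield IC50.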
(TR-FRET usually uses a lanthanide donor and a delayed reading to cut background.)

Assay [2] has as its system OPM-2 human multiple myeloma cell line. As to the kind of experiment: Cell Viability Assay (OPM-2 10 FBS). In kind it is cell-based. The following applies: OPM-2 cells, CellTiter-Glo. In outline:
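Plated at 3000 cells/well in 10% FBS complete medium, the cells received a serial compound dilution series and incubated 16 h at 37 °C with 5% CO2. CellTiter-Glo was then added; IC50 values were fitted with a logistic 4-parameter model.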
(Cellular ATP, detected with luciferase, serves as a proxy for viable cell number.)

The mark [3] stands for this setting: TR-FRET, 0.1 nM Mcl-1 (171-327), 0.05 nM biotin-Bim (51-76).
Where [4] appears, read: Homo sapiens, OPM-2, 16 h, 16 h.
[5] abbreviates: cell free Mcl-1:Bim TR-FRET, recombinant human Mcl-1 (171-327).

T1 sequence (Q07820 171-327): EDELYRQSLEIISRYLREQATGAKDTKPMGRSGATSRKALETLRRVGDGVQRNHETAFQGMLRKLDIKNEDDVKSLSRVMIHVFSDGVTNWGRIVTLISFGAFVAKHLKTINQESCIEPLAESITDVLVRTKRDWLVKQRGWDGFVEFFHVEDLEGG

The IC50 is the concentration at which inhibition is half-maximal. For `CCN(CC)S(=O)(=O)CCN1CC/C=C/[C@H](O)[C@@H]2CC[C@H]2CN2C[C@@]3(CCCc4cc(Cl)ccc43)COc3ccc(cc32)C(=O)NS1(=O)=O` [Example 35, 2-((1S,3′R,6′R,7′S,8′E)-6-chloro-7′-hydroxy-13′,13′-dioxido-15′-oxo-3,4-dihydro-2H,12′H-spiro[naphthalene-1,22′-[20]oxa[13]thia[1,12,14]triazatetracyclo[14.7.2.0^3,6.0^19,24]pentacosa[8,16,18,24]tetraen]-12′-yl)-N,N-diethylethanesulfonamide], the IC50 in assay [1] (setting [3]) is 1.55 nM; in assay [2] (setting [4]) it was 1280 nM.

On to `COCC[C@@H]1[C@@H](C)C/C=C\[C@H](O)[C@@H]2CC[C@H]2CN2C[C@@]3(CCCc4cc(Cl)ccc43)COc3ccc(cc32)C(=O)NS1(=O)=O` (single isomer, unassigned) [Example 394], for which the IC50 in assay [1] (setting [3]) was 1.26 nM; in assay [2] (16 h), 1250 nM.

On to `O=C1NS(=O)(=O)CCC/C=C/[C@@H](OCCO)[C@@H]2CC[C@H]2CN2C[C@@]3(CCCc4cc(Cl)ccc43)COc3ccc1cc32` [Example 220, (1S,3′R,6′R,7′R,8′E)-6-chloro-7′-(2-hydroxyethoxy)-3,4-dihydro-2H,15′H-spiro[naphthalene-1,22′-[20]oxa[13]thia[1,14]diazatetracyclo[14.7.2.0^3,6.0^19,24]pentacosa [8,16,18,24]tetraen]-15′-one 13′,13′-dioxide], for which the IC50 in assay [1] (setting [3]) was found to be 1.99 nM; in assay [2] (setting [4]), 2660 nM.

Take `CO[C@H]1/C=C/CCN(C)S(=O)(=O)NC(=O)c2ccc3c(c2)N(C[C@@H]2CC[C@H]21)C[C@@]1(CCCc2cc(Cl)ccc21)CO3` (single isomer, unassigned) [Example 47]: the figures for the concentration for half-maximal inhibition (IC50) in assay [1] (setting [3]) and in assay [2] (setting [4]) were 0.629 nM and 1280 nM, respectively.

`COCCO[C@H]1/C=C/C[C@H](C)[C@@H](C)S(=O)(=O)NC(=O)c2ccc3c(c2)N(C[C@@H]2CC[C@H]21)C[C@@]1(CCCc2cc(Cl)ccc21)CO3` [Example 719, (1S,3′R,6′R,7′S,8′E,11′S,12′R)-6-chloro-7′-(2-methoxyethoxy)-11′,12′-dimethyl-3,4-dihydro-2H,15′H-spiro[naphthalene-1,22′-[20]oxa[13]thia[1,14]diazatetracyclo[14.7.2.0^3,6.0^19,24]pentacosa[8,16,18,24]tetraen]-15′-one-13′, 13′-dioxide]: the IC50 was 0.366 nM in assay [1] (setting [5]) and 117 nM in assay [2] (setting [4]).

As to `O=C1NS(=O)(=O)[C@H]2CCCC(C2)[C@H](O)[C@@H]2CC[C@H]2CN2C[C@@]3(CCCc4cc(Cl)ccc43)COc3ccc1cc32` (single isomer, unassigned) [Example 364], the IC50 was determined as 3.12 nM in assay [1] (setting [3]) and 30900 nM in assay [2] (16 h).

Take `C[C@@H]1[C@@H](C)C/C=C/[C@H](OCCN2CCCC2=O)[C@@H]2CC[C@H]2CN2C[C@@]3(CCCc4cc(Cl)ccc43)COc3ccc(cc32)C(=O)NS1(=O)=O` [Example 730, (1S,3′R,6′R,7′S,8′E,11′5,12′R)-6-chloro-11′,12′-dimethyl-7′-(2-(2-oxo-1-pyrrolidinyl)ethoxy)-3,4-dihydro-2H,15′H-spiro[naphthalene-1,22′-[20]oxa[13]thia[1,14]diazatetracyclo[14.7.2.0^3,6.0^19,24]pentacosa [8,16,18,24]tetraen]-15′-one-13′, 13′-dioxide]: the IC50 was determined as 0.307 nM in assay [1] (setting [5]) and 157 nM in assay [2] (setting [4]).

Take `CC[C@@H]1CC/C=C/[C@H](OCC(=O)N2CCC2)[C@@H]2CC[C@H]2CN2C[C@@]3(CCCc4cc(Cl)ccc43)COc3ccc(cc32)C(=O)NS1(=O)=O` [Example 997, (1S,3′R,6′R,7′S,8′E,12′R)-7′-(2-(1-azetidinyl)-2-oxoethoxy)-6-chloro-12′-ethyl-3,4-dihydro-2H,15′H-spiro[naphthalene-1,22′-[20]oxa[13]thia[1,14]diazatetracyclo[14.7.2.0^3,6.0^19,24]pentacosa [8,16,18,24]tetraen]-15′-one 13′,13′-dioxide]: the IC50 in assay [1] (setting [3]) was 0.336 nM; in assay [2] (Homo sapiens, OPM-2, 16 h, 16 h incubation), 962 nM.

Regarding `C[C@H]1C/C=C/[C@H](O)[C@@H]2CC[C@H]2CN2C[C@@]3(CCCc4cc(Cl)ccc43)COc3ccc(cc32)C(=O)NS(=O)(=O)N1C[C@@H]1CCCO1` (single isomer, unassigned) [Example 49], the half-maximal inhibitory concentration (IC50) in assay [1] (setting [3]) was 0.321 nM; in assay [2] (setting [4]), 444 nM.

Turning to `O=C1NS(=O)(=O)[C@H]2CC[C@@H]2C/C=C/[C@H](O)[C@@H]2CC[C@H]2CN2C[C@@]3(CCCc4cc(Cl)ccc43)COc3ccc1cc32` (single isomer, unassigned) [Example 90], the results for the IC50 in assay [1] (setting [3]) and in assay [2] (setting [4]) were 0.44 nM and 322 nM, respectively.

Consider `CC(C)OC(=O)C[C@@H]1[C@@H](C)C/C=C\[C@H](O)[C@@H]2CC[C@H]2CN2C[C@@]3(CCCc4cc(Cl)ccc43)COc3ccc(cc32)C(=O)NS1(=O)=O` [Example 568], for which the results for the 50% inhibitory concentration (IC50) in assay [1] (setting [5]) and in assay [2] (16 h) were 1.1 nM and 1310 nM, respectively.

As to `COCCN1[C@@H](C)C/C=C\[C@H](O)[C@@H]2CC[C@H]2CN2C[C@@]3(CCCc4cc(Cl)ccc43)COc3ccc(cc32)C(=O)NS1(=O)=O` (single isomer, unassigned) [Example 63], the half-inhibitory concentration (IC50) in assay [1] (setting [3]) was found to be 0.728 nM; in assay [2] (setting [4]) it was 810 nM.

For the compound `CC[C@@H]1C/C=C/[C@H](OCC(=O)OC)[C@@H]2CC[C@H]2CN2C[C@@]3(CCCc4cc(Cl)ccc43)COc3ccc(cc32)C(=O)NS(=O)(=O)C1` [Example 741, methyl (((1S,3′R,6′R,7′S,8′E,11′R)-6-chloro-11′-ethyl-13′,13′-dioxido-15′-oxo-3,4-dihydro-2H-spiro[naphthalene-1,22′-[20]oxa[13]thia [1,14]diazatetracyclo[14.7.2.0^3,6.0^19,24]pentacosa[8,16,18,24]tetraen]-7′-yl)oxy)acetate], the IC50 amounted to 13.5 nM in assay [1] (setting [5]) and 3110 nM in assay [2] (setting [4]).

As for `Cn1cnc(CO[C@H]2/C=C/C[C@H]3CC[C@@H]3S(=O)(=O)NC(=O)c3ccc4c(c3)N(C[C@@H]3CC[C@H]32)C[C@@]2(CCCc3cc(Cl)ccc32)CO4)n1` [Example 94, (1S,3′R,6′R,7′S,8′E,11′R,14′S)-6-chloro-7′-((1-methyl-1H-1,2,4-triazol-3-yl)methoxy)-3,4-dihydro-2H,17′H-spiro[naphthalene-1,24′-[22]oxa[15]thia[1,16]diazapentacyclo[16.7.2.0^3,6.0^11,14.0^21,26]heptacosa[8,18,20,26]tetraen]-17′-one 15′,15′-dioxide], the results for the IC50 in assay [1] (setting [3]) and in assay [2] (setting [4]) were 0.467 nM and 432 nM, respectively.

With `C[C@@H]1[C@@H](C)C/C=C/[C@H](OCCCN2CCOCC2)[C@@H]2CC[C@H]2CN2C[C@@]3(CCCc4cc(Cl)ccc43)COc3ccc(cc32)C(=O)NS1(=O)=O` [Example 721, (1S,3′R,6′R,7′S,8′E,11′S,12′R)-6-chloro-11′,12′-dimethyl-7′-(3-(4-morpholinyl)propoxy)-3,4-dihydro-2H,15′H-spiro[naphthalene-1,22′-[20]oxa[13]thia[1,14]diazatetracyclo[14.7.2.0^3,6.0^19,24]pentacosa [8,16,18,24]tetraen]-15′-one-13′, 13′-dioxide], the IC50 in assay [1] (setting [5]) was 0.539 nM; in assay [2] (setting [4]) it was 73.5 nM.

`COC[C@H]1[C@@H](C)C/C=C/[C@H](OC)[C@@H]2CC[C@H]2CN2C[C@@]3(CCCc4cc(Cl)ccc43)COc3ccc(cc32)C(=O)NS1(=O)=O` (single isomer, unassigned) [Example 461]: the IC50 in assay [1] (setting [3]) amounted to 1.79 nM; in assay [2] (16 h), 775 nM.

In the case of `CC1CC(C)CS(=O)(=O)NC(=O)c2ccc3c(c2)N(CC2CCC2C(O)C1)CC1(CCCc2cc(Cl)ccc21)CO3` (single isomer, unassigned) [Example 272], the IC50 worked out at 0.396 nM in assay [1] (setting [3]) and 1190 nM in assay [2] (16 h).
